Data on eleven compounds can be found in ChEMBL document CHEMBL1132612, “Melatonergic properties of the (+)- and (-)-enantiomers of N-(4-methoxy-2,3-dihydro-1H-phenalen-2-yl)amide derivatives” (J Med Chem, 1999).

Test [1] deals with Melatonin receptor (Xenopus laevis). In words: Percent maximum effect relative to melatonin (100%).
The target of test [2] is Melatonin receptor (Xenopus laevis). In words: Functional activity against melatonin receptor in lightening Xenopus laevis tadpole skin.
A further test deals with Melatonin receptor (Gallus gallus, UniProt P49288+P51050+P49285). The test can be described thus: Inhibition of 2-[125I]- iodomelatonin from chicken brain melatonin receptors.
For test [3], the target named is Melatonin receptor (Xenopus laevis). In words: The functional activity on melatonin receptor was evaluated by its potency to lighten the skin of Xenopus laevis tadpoles.

The EC50 is the midpoint of the concentration-response curve. Read a low EC50 as an effect from little substance. Consider `COc1ccc2ccc(OC)c(CCNC(C)=O)c2c1`, for which, in test [1], the Activity came to 100%. Also, the concentration giving a half-maximal response (EC50) in test [2] came out at 0.037 nM.
One may read the Ki as a measure of affinity in units of concentration, obtained from inhibition or displacement. Low readings indicate higher affinity, high ones lower affinity. `COc1ccc2cccc3c2c1CC(NC(C)=O)C3` (racemic) gave an Activity in test [1] of 0%. At Melatonin receptor, the Ki was determined as 36.5 nM. The EC50 in test [2] is recorded as above 1000 nM.
On Melatonin receptor, `CCCC(=O)N[C@H]1Cc2cccc3ccc(OC)c(c23)C1` registered an inhibition constant (Ki) of 3.2 nM.
Turning to `CCCC(=O)N[C@@H]1Cc2cccc3ccc(OC)c(c23)C1`, at Melatonin receptor, the Ki amounted to 10 nM.
For `COc1ccc2cccc3c2c1C[C@@H](NC(C)=O)C3`, the Activity in test [1] came out at 0%. Also, on Melatonin receptor, the Ki is listed as 38.3 nM. In test [2], the 50% effective concentration (EC50) is recorded as above 1000 nM.
For the compound `CCCC(=O)NC1Cc2cccc3ccc(OC)c(c23)C1` (racemic), the half-maximal effective concentration (EC50) in test [3] is listed as above 1000 nM. In test [1], this compound showed an Activity of 40%. The Ki at Melatonin receptor is 1.7 nM.
For the compound `CCC(=O)N[C@H]1Cc2cccc3ccc(OC)c(c23)C1`, the inhibition constant (Ki) at Melatonin receptor came out at 9 nM.
Consider `O=C(NCCc1cccc2ccccc12)C1CCC1`, for which the Ki on Melatonin receptor was determined as 787 nM. This compound also returned an EC50 in test [2] above 1000 nM.
In the case of `CCC(=O)NC1Cc2cccc3ccc(OC)c(c23)C1` (racemic), the Activity in test [1] was 40%. Besides, on Melatonin receptor, the Ki is given as 8.6 nM. In test [2], this compound had an EC50 above 1000 nM.
Taken in the same sequence, the figures for `COc1ccc2cccc3c2c1C[C@H](NC(C)=O)C3` were 0%, 28.7 nM and above 1000 nM.
Consider `CCC(=O)N[C@@H]1Cc2cccc3ccc(OC)c(c23)C1`, for which the Ki on Melatonin receptor was found to be 7.6 nM.
